The text below walks through data of patent US20250059188A1, “ARYLSULPHONAMIDE COMPOUNDS” (Anaxis Pharma Pty Ltd, priority 2021, published 2025).

One test concerns U937 cells. Put plainly: Counter screen: U937 cell viability without TSQ cocktail (off-target effect). The arrangement: species or system human. The settings on record: Homo sapiens, U-937, compound without TSQ cocktail, read-out: Off-target effect (IC50 cell-based assay). In a few lines: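 U937 cells (20,000/well) exposed to compound (10-point 1:3 titration from 36 μM, 0.3% DMSO) without TSQ cocktail for 48 h at 37 °C/5% CO2. Viability read as ATP by CellTiter-Glo luminescence; IC50 from 4-parameter logistic fit.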

In test [1] the test system is U937 human histiocytic leukemia cell line. Put plainly: Inhibition of TSQ induced necroptosis in U937 cells (CellTitre-Glo). The settings on record: Homo sapiens, U-937, TSQ cocktail (TNF, Smac mimetic, Q-VD-OPh), 48 hours, read-out: Inhibition of TSQ-induced necroptosis (IC50 cell-based assay). A digest of the protocol:
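U937 cells (20000/well) treated with compound (10-point, 1:3 from 36 μM, 0.3% DMSO) plus TSQ cocktail (hTNF-Fc 100 ng/ml, Smac mimetic 500 nM, Q-VD-OPh 10 μM), 48 h at 37 °C. Viability by CellTiter-Glo luminescence; IC50 from 4-parameter logistic fit. Counter screen: same cells without TSQ.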

The next test deals with mouse MLKL (full length) (Mus musculus (Mouse), UniProt Q9D2Y4). Put plainly: KINOMEscan binding assay, mouse MLKL (full length). The settings on record: equilibrium dissociation constant. Here is the method:
Binding affinity of the test compounds for human MLKL (full length), mouse MLKL (full length), human RIPK1 and human RIPK3 was determined using the KINOMEscan™ technology developed by DiscoverX (USA; http://www.discoverx.com). The assay was conducted according to manufacturer instructions.
Kinase assays. For most assays, kinase-tagged T7 phage strains were grown in parallel in 24-well blocks in an E. coli host derived from the BL21 strain. E. coli were grown to log-phase and infected with T7 phage from a frozen stock (multiplicity of infection=0.4) and incubated with shaking at 32° C. until lysis (90-150 minutes). The lysates were centrifuged (6,000×g) and filtered (0.2 μm) to remove cell debris. The remaining kinases were produced in HEK-293 cells and subsequently tagged with DNA for qPCR detection. […] The liganded beads were blocked with excess biotin and washed with blocking buffer (SeaBlock (Pierce), 1% BSA, 0.05% Tween 20, 1 mM DTT) to remove unbound ligand and to reduce non-specific phage binding. […] All reactions were performed in polypropylene 384-well plates in a final volume of 20 μL. […] The kinase concentration in the eluates was measured by qPCR.
An 11-point 3-fold serial dilution of each test compound was prepared in 100% DMSO at 100× final test concentration and subsequently diluted to 1× in the assay (final DMSO concentration=1%). Most Kos were determined using a compound top concentration=30,000 nM.
KD for each test compound was calculated with a standard dose-response curve using the Hill equation (equation (1)): […]
The Hill Slope was set to −1.
Curves were fitted using a non-linear least square fit with the Levenberg-Marquardt algorithm.

mouse MLKL (full length), sequence (Q9D2Y4 whole entry): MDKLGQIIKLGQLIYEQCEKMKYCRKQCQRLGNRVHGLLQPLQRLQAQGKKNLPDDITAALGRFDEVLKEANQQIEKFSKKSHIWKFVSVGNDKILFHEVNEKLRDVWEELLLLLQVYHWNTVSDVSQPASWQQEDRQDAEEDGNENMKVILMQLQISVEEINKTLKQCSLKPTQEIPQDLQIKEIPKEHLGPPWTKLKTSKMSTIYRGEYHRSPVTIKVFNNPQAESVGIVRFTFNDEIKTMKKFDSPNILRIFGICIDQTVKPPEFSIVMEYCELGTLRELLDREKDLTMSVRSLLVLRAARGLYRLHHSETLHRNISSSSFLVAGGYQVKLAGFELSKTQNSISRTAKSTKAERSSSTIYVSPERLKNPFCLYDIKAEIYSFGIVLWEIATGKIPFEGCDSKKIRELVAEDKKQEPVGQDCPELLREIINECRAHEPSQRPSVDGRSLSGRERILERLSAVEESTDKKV

As for `Cn1nc(-c2ccc(NS(=O)(=O)C(F)F)c(OCc3ccc(F)cc3)c2)c2c(N)ncc(-c3cnn(C4CCOCC4)c3)c21` [Compound 13, N-(4-(4-amino-1-methyl-7-(1-(tetrahydro-2H-pyran-4-yl)-1H-pyrazol-4-yl)-1H-pyrazolo[4,3-c]pyridin-3-yl)-2-((4-fluorobenzyl)oxy)phenyl)-1,1-difluoromethanesulfonamide], the IC50 (as a rule, the concentration needed to halve the response being measured) in the test on U937 cells is over 10 µM; in test [1], 0.01 to 1 µM. Besides, on mouse MLKL (full length), the Kd (in general, the free concentration of one partner at which half of the binding sites on the other are occupied at equilibrium, for simple one-to-one binding) was under 0.001 µM.

Regarding `C[C@H](Oc1cc(-c2nn(C)c3c(-c4cnn(C5CCOCC5)c4)cnc(N)c23)ccc1NS(=O)(=O)C(F)F)c1ccc(F)cc1` [Compound 19, (S)-N-(4-(4-amino-1-methyl-7-(1-(tetrahydro-2H-pyran-4-yl)-1H-pyrazol-4-yl)-1H-pyrazolo[4,3-c]pyridin-3-yl)-2-(1-(4-fluorophenyl)ethoxy)phenyl)-1,1-difluoromethanesulfonamide], the IC50 in the test on U937 cells is over 10 µM; in test [1] it was under 0.01 µM. The molecule also had a dissociation constant Kd on mouse MLKL (full length) of under 0.001 µM.

With `C[C@H](Oc1cc(-c2nn(C)c3c(-c4cnn(C5CCN(CC(F)(F)F)C(C)(C)C5)c4)cnc(N)c23)ccc1NS(=O)(=O)C(F)F)c1ccc(F)cc1` (stereo partly drawn) [Compound 167, N-(4-(4-amino-7-(1-(2,2-dimethyl-1-(2,2,2-trifluoroethyl)piperidin-4-yl)-1H-pyrazol-4-yl)-1-methyl-1H-pyrazolo[4,3-c]pyridin-3-yl)-2-((S)-1-(4-fluorophenyl)ethoxy)phenyl)-1,1-difluoromethanesulfonamide], the concentration for half-maximal inhibition (IC50) in the test with U937 cells lay within 1 to 10 µM; in test [1], 0.01 to 1 µM.

Take `CC1CN(C)CC(C)C1n1cc(-c2cnc(N)c3c(-c4ccc(NS(=O)(=O)C(F)F)c(O[C@@H](C)c5ccc(F)cc5)c4)nn(C)c23)cn1` (stereo partly drawn) [Compound 172, N-(4-{4-amino-1-methyl-7-[1-(1,3,5-trimethylpiperidin-4-yl)-1H-pyrazol-4-yl]-1H-pyrazolo[4,3-c]pyridin-3-yl}-2-[(1S)-1-(4-fluorophenyl)ethoxy]phenyl)-1,1-difluoromethanesulfonamide]: the IC50 in the test with U937 cells is over 10 µM; in test [1] it was 0.01 to 1 µM.
